Laboratory results published in US20050209345A1, “Lymphatic drug delivery system” (priority 2001, published 2005).
Where two headings read alike, the source gives them in different places.

How the values were obtained:
[1] = rats; cited from earlier work
[2] = conscious rats, cited from earlier work
[3] = Thoracic lymph duct and portal vein cannulated greyhound dog study: lymphatic transport of halofantrine and triglyceride, systemic availability; conditions: fed dogs, IV 2 mg/kg, over 12 h, mean +/- sd, n = 3
Method: (§1) All surgical and experimental procedures were performed in accordance with the guidelines and approval of the local Institutional Animal Experimentation Ethics Committee. Studies were conducted in male greyhound dogs (28-35 kg), and their health status was verified by a veterinarian prior to the study. Prior to surgery, each dog was fed a small lipid meal to facilitate identification of the thoracic duct. […] Each dog received intravenous infusion of Lactated Ringer's solution (300 mL/h) during surgery, and a post-operative injection of antibiotic (cephazolin, 20 mg/kg) and analgesic (carprofen, 4 mg/kg).
(§2) The ventral abdomen was firstly clipped and prepared for aseptic surgery. A 5 cm long ventral midline laparotomy was performed to allow a loop of jejunum to be exteriorised. A 133 mm 16 gauge cannula was then inserted into a jejunal vein to the level of the portal vein. The cannula was stabilised in both the portal and jejunal veins with a ligature of 3/0 silk to the jejunal vein and a minimal volume extension tube, filled with heparinised saline, was then attached and externalised through a separate stab incision in the left flank and stabilised with sutures. The laparotomy wound was closed in anatomical layers with 3/0 polydioxinone sutures. The position of the cannula in the portal vein was confirmed by a portal venogram following a 10 mL injection of a contrast dye (Iohexol), and cannula patency was maintained by small volume flushing with heparinised saline (1 U/mL).
(§3) The left ventral neck area and cranial thorax was clipped and prepared for aseptic surgery. A curved incision was made over the left external jugular vein and the vein was then dissected from the surrounding tissues to the axillary vein. At the junction of the internal jugular and brachiocephalic veins, the thoracic duct ampulla was identified by its whitish appearance This was then ligated at the point of entrance into the brachiocephalic vein and all tributaries converging to the thoracic duct were ligated to ensure the return of lymph through the main lymphatic canal. […]

[4] = in soybean oil; cited from earlier work
[5] = rats, oral, cited from earlier work
[6] = rats, soybean emulsion, 24 h post dosing; cited from earlier work
[7] = dog, in vivo, po
Method: as §1, §2, §3

[8] = in vivo; cited from earlier work

COC1(O[C@H]2CC[C@H]3[C@@H]4CC[C@H]5C[C@@H]6S[C@@H]6C[C@]5(C)[C@H]4CC[C@]23C)CCCC1 [mepitiostane]
extent of lymphatic transport, polysorbate 80 micellar solution versus triglyceride lipid vehicle [1]: no significant differences

CCCCCCCCCCC(C)(C)C(=O)Nc1c(OC)cc(OC)cc1OC [Cl-976]
total amount transported in lymph as percent of dose, lipid-based emulsion compared with suspension ([2]; over 14 h): 7 times | absolute amount of drug transported lymphatically [2]: < 1%

CCCCN(CCCC)CCC(O)c1cc2c(Cl)cc(Cl)cc2c2cc(C(F)(F)F)ccc12 (centres unmarked) [Hf, halofantrine]
Cum Hf transport in lymph (% dose) [3]: 1.5 +/− 0.2 % dose

CC(C)CCC[C@@H](C)[C@H]1CC[C@H]2[C@@H]3[C@@H](C)C[C@H]4N(C)C(=O)CC[C@]4(C)[C@H]3CC[C@]12C [MK-386]
lipid solubility [4]: > 80 mg/mL | rank order of total amount transported into the mesenteric lymph by formulation ([5]; 6 h post-dosing): aqueous suspension>mixed lipid/surfactant system>soybean oil | levels of radioactivity in the lymph compared with the portal blood ([5]; all three formulations): up to 80 fold

Cc1ccc2oc(N[C@@H](CC3CCCCC3)c3ccccn3)nc2c1 [ontazolast]
total amount of lymphatically transported ontazolast, increase versus aqueous based suspension [6]: ~50 fold

CCCCN(CCCC)CCC(O)c1cc2c(Cl)cc(Cl)cc2c2cc(C(F)(F)F)ccc12 (centres unmarked) [Hf base]
Cum Hf transport in lymph (% dose) [7]: 1.3 +/− 0.7 % dose | Transport into syst circulation (% dose) [7]: 30.2 +/− 18.7 % dose

CCCCCCCCCCCCCCCC(=O)OC/C=C(C)/C=C/C=C(C)/C=C/C1=C(C)CCCC1(C)C [retinyl palmitate]
lymphatic transport, aqueous polysorbate 80 micellar solution compared with lipid solution [8]: two-fold increase
